According to patent publication US10183006B2, “Methods of therapeutic monitoring of nitrogen scavenging drugs” (Horizon Therapeutics, LLC, priority 2011, dated 2019):
One block for each compound: values may come before it.

Columns and labels:
[1] = Short term switch over comparison of NaPBA and HPN-100 in controlling ammonia, 24-hr serial sampling, pediatric UCD patients; assay type: in vivo, human; details: end of treatment with HPN-100; 11 pediatric UCD patients ages 6-17
From the text: (§1) The relationship between reducing ammonia burden by maintaining fasting ammonia at or close to half ULN and neuropsychological outcomes in pediatric UCD patients was explored in clinical trials. […] These patients underwent 24-hr serial sample collection in a confined setting where the last sample at 24 hr was considered fasting and under supervision of the study personnel. At the end of treatment with HPN-100 the average fasting ammonia at 24-hr time point was 15.5 μmol/L or less than half ULN, indicating good clinical control. These 11 patients along with another 15 pediatric patients were enrolled in two long term studies and received HPN-100 for 12 months, during which monthly fasting ammonia were collected. At the time of enrollment and at the end of the study, all patients underwent assessment for neuropsychological outcomes including the following: BRIEF (Behavior Rating Inventory of Executive Function) to assess day-to-day executive functioning, CBCL (Child Behavior Checklist) to evaluate internalizing (e.g., mood/anxiety) and externalizing behaviors, and WASI (Wechsler Abbreviated Scale of Intelligence) to estimate of intellectual ability.

[2] = Two long term studies, HPN-100 for 12 months in pediatric UCD patients: monthly fasting ammonia and hyperammonemia episodes; assay type: in vivo, human
From the text: as §1, with “ability. […]” for “ability.”

[3] = Neuropsychological outcomes (BRIEF, CBCL, WASI) after 12 months HPN-100 in pediatric UCD patients; assay type: in vivo, human
From the text: as §1
In pediatric patients, WASI and CBCL scores were stable in comparison to baseline. The majority of the BRIEF subscales at baseline were at or close to 65, consistent with borderline and/or clinically significant dysfunction. Among 22 pediatric subjects who completed the neuropsychological testing at 12 months, all BRIEF domains were improved (lower T scores) with means (SD) at end of study compared to baseline for Behavioral Regulation Index 53.7 (9.79) vs. 60.4 (14.03) (p<0.05); Metacognition Index 57.5 (9.84) vs. 67.5 (13.72) (p<0.001), and Global Executive Scale 56.5 (9.71) vs. 66.2 (14.02) (p<0.001).

[4] = Relationship between PAA levels and neurological AEs in UCD patients (switchover and 12-month protocols); assay type: in vivo, human; details: short term switchover
[5] = Population PK model (NONMEM) and Monte Carlo dosing simulations in UCD patients; set-up: species or system human
Description: Diagnostic plots and statistical comparisons were used to select among candidate models, and covariates were assessed by graphical analyses and covariate modeling.

[6] = HPN-100 in subjects with hepatic impairment with cirrhosis and healthy adults (Study UP 1204-002): urinary excretion; assay type: in vivo, human; details: for PAGN Proportion excreted post-24 hours (%), of total PAGN eliminated over 48 hours: after dosing on day 1
Description: (§2) To determine its pharmacokinetic (PK) and pharmacodynamic (PD) profile in patients with liver disease, clinical testing was conducted in which HPN-100 was administered orally as a single dose (100 mg/kg/day on day 1), and twice daily for 7 consecutive days (200 mg/kg/day on days 8 through 14, in two doses of 100 mg/kg per dose), to subjects with hepatic impairment with cirrhosis (Child-Pugh scores of A, B, or C) and to a gender and age-matched control group of healthy adults with normal hepatic function. On day 15, subjects received a single dose of HPN-100 (100 mg/kg). PK blood samples were taken pre-dose, at 15 and 30 minutes post-dose, and at 1, 1.5, 2, 3, 4, 6, 8, 12, and 24 hours post-dose on days 1, 8, and 15, and at 48 hours after dosing on days 1 and 15. On days 9-14, blood samples were taken pre-morning dose and at 2 hours post-morning dose. Urine was collected 0-4, 4-8, 8-12, and 12-24 hours post-dose on days 1, 8, and 15, and at 24-48 hours post-dose on days 1 and 15.

[7] = Illustrative UCD patient cases (Patients A, B, C): blood ammonia under nitrogen scavenging drug
From the text: In certain embodiments of the methods disclosed herein, blood samples used for measuring fasting blood ammonia levels and/or ULN blood ammonias are venous blood samples. In certain embodiments, a blood sample is a plasma blood sample. Any methods known in the art may be used to obtain a plasma blood sample. For example, blood from a subject may be drawn into a tube containing heparin or ethylenediaminetetraacetic acid (EDTA). In certain embodiments, the sample can be placed on ice and centrifuged to obtain plasma within 15 minutes of collection, stored at 2-8° C. […] In other embodiments, the blood plasma sample is snap frozen, stored at ≤−18° C. […] In certain embodiments, blood samples are taken in a laboratory or hospital setting. In certain embodiments, a single fasting blood sample is used to measure fasting blood ammonia level. However, in other embodiments, multiple fasting blood samples may be obtained. In certain embodiments, a subject's blood ammonia level may be monitored throughout the day. Further, in certain embodiments, the methods disclosed herein comprise an additional step of obtaining one or more blood samples from a subject prior to or after measuring fasting blood ammonia level.
Measurement of ammonia levels in a fasting blood sample is carried out using techniques known in the art. For example, ammonia levels may be measured using a colorimetric reaction or an enzymatic reaction. In certain embodiments, a colorimetric reaction may involve the use of bromophenol blue as an ammonia indicator. In these embodiments, ammonia may react with bromophenol blue to yield a blue dye. In certain embodiments, an enzymatic reaction may involve glutamate dehydrogenase catalyzing the reductive amination of 2-oxoglutarate with NH^4+ and NADPH to form glutamate and NADP^+. The formation of NADP^+ formed is directly proportional to the amount of ammonia present in the blood sample. Therefore, the concentration of ammonia is measured based on a decrease in absorbance.
Initial dosage is determined based on body surface area or as otherwise instructed according to HPN-100 drug labeling.

[8] = HPN-100 in subjects with hepatic impairment with cirrhosis and healthy adults: plasma metabolites; assay type: in vivo, human; details: all plasma samples, all subject groups
Description: as §2

[9] = after dosing on day 1 (0-48 hours), Child-Pugh A
[10] = after dosing on day 1 (0-48 hours), Child-Pugh B
[11] = after dosing on day 1 (0-48 hours), Child-Pugh C
[12] = after dosing on day 1 (0-48 hours), Healthy Volunteers
[13] = Patient A, 3 mL dose with each meal

fractional presystemic metabolism of PBA ([5]; adults): 43%
slower PBA absorption when delivered as GPB vs. NaPBA ([5]; final popPK model): ~60%
fractional presystemic metabolism of PBA ([5]; pediatric patients): 14%
urinary PAGN Amount Excreted ([6]; after dosing on day 1 (0-24 hours), Child-Pugh A (n = 8)): 15553 µmol
urinary PAGN Amount Excreted ([6]; after dosing on day 1 (0-24 hours), Child-Pugh B (n = 8)): 16847 µmol
urinary PAGN Amount Excreted ([6]; after dosing on day 1 (0-24 hours), Child-Pugh C (n = 8)): 19291 µmol
urinary PAGN Amount Excreted ([6]; after dosing on day 1 (0-24 hours), Healthy Volunteers (n = 8)): 14903 µmol
PAGN Mole % of dose excreted [6, 9]: 47.1 Mole %
urinary PAGN Amount Excreted [6, 9]: 18386 µmol
PAGN Mole % of dose excreted [6, 10]: 44.9 Mole %
urinary PAGN Amount Excreted [6, 10]: 19902 µmol
PAGN Mole % of dose excreted [6, 11]: 48.5 Mole %
urinary PAGN Amount Excreted [6, 11]: 20854 µmol
PAGN Mole % of dose excreted [6, 12]: 42.2 Mole %
urinary PAGN Amount Excreted [6, 12]: 17869 µmol
PAGN Proportion excreted post-24 hours (%), of total PAGN eliminated over 48 hours ([6]; Child-Pugh A): 15.5%
PAGN Proportion excreted post-24 hours (%), of total PAGN eliminated over 48 hours ([6]; Child-Pugh B): 14.5%
PAGN Proportion excreted post-24 hours (%), of total PAGN eliminated over 48 hours ([6]; Child-Pugh C): 8.8%
PAGN Proportion excreted post-24 hours (%), of total PAGN eliminated over 48 hours ([6]; Healthy Volunteers): 16.9%
urinary PAGN Amount Excreted ([6]; after dosing on day 8 (0-12 hours), after first 100 mg/kg morning dose, Child-Pugh A): 16068 µmol
urinary PAGN Amount Excreted ([6]; after dosing on day 8 (0-12 hours), after first 100 mg/kg morning dose, Child-Pugh B): 13179 µmol
urinary PAGN Amount Excreted ([6]; after dosing on day 8 (0-12 hours), after first 100 mg/kg morning dose, Child-Pugh C): 15428 µmol
urinary PAGN Amount Excreted ([6]; after dosing on day 8 (0-12 hours), after first 100 mg/kg morning dose, Healthy Volunteers): 10195 µmol
PAGN Mole % of dose excreted ([6]; after dosing on day 8 (0-12 hours), Child-Pugh A): 40.6 Mole %
PAGN Mole % of dose excreted ([6]; after dosing on day 8 (0-12 hours), Child-Pugh B): 29.9 Mole %
PAGN Mole % of dose excreted ([6]; after dosing on day 8 (0-12 hours), Child-Pugh C): 44.6 Mole %
PAGN Mole % of dose excreted ([6]; after dosing on day 8 (0-12 hours), Healthy Volunteers): 24.5 Mole %
PAGN Mole % of dose excreted ([6]; after dosing on day 15 (0-48 hours), % of the single morning dose of day 15, Child-Pugh A): 79.6 Mole %
PAGN Mole % of dose excreted ([6]; after dosing on day 15 (0-48 hours), % of the single morning dose of day 15, Child-Pugh B): 58.2 Mole %
PAGN Mole % of dose excreted ([6]; after dosing on day 15 (0-48 hours), % of the single morning dose of day 15, Child-Pugh C): 85.0 Mole %
PAGN Mole % of dose excreted ([6]; after dosing on day 15 (0-48 hours), % of the single morning dose of day 15, Healthy Volunteers): 68.6 Mole %
urinary PAGN Amount Excreted ([6]; after dosing on day 15 (0-48 hours), Child-Pugh A): 31431 µmol
urinary PAGN Amount Excreted ([6]; after dosing on day 15 (0-48 hours), Child-Pugh B): 25152 µmol
urinary PAGN Amount Excreted ([6]; after dosing on day 15 (0-48 hours), Child-Pugh C): 30752 µmol
urinary PAGN Amount Excreted ([6]; after dosing on day 15 (0-48 hours), Healthy Volunteers): 28716 µmol
average conversion of HPN-100 to PAGN ([6]; after single dose administration, cirrhosis and healthy volunteers): 40-50%
HPN-100 dose administered excreted as PAGN ([6]; day 1): 42-49%
HPN-100 dose administered excreted as PAGN ([6]; day 8): 25-45%
HPN-100 dose administered excreted as PAGN ([6]; day 15): 58-85%
Compound: O=C(CCCc1ccccc1)OCC(COC(=O)CCCc1ccccc1)OC(=O)CCCc1ccccc1 [HPN-100, glyceryl tri-[4-phenylbutyrate]]
average fasting ammonia at 24-hr time point [1]: 15.5 µmol/L
episodes of acute hyperammonemia ([2]; during 12 month treatment, pediatric UCD patients, 9 in the 12 months before enrollment): 5
peak ammonia, mean ([2]; during the 12 month study, 233 μmol/L before enrollment): 166 µmol/L
BRIEF Behavioral Regulation Index, T score mean (SD) at end of study ([3]; 22 pediatric subjects, baseline 60.4 (14.03), p<0.05): 53.7 (9.79)
BRIEF Global Executive Scale, T score mean (SD) at end of study ([3]; 22 pediatric subjects, baseline 66.2 (14.02), p<0.001): 56.5 (9.71)
BRIEF Metacognition Index, T score mean (SD) at end of study ([3]; 22 pediatric subjects, baseline 67.5 (13.72), p<0.001): 57.5 (9.84)
WASI and CBCL scores in comparison to baseline ([3]; pediatric patients): stable
relationship between neurological AEs and PAA levels [4]: No statistically significant relationship
effect of hepatic impairment on ammonia-scavenging ability ([6]; urinary PAGN excretion, Child-Pugh groups vs healthy volunteers): no significant effect
fasting blood ammonia level ([7]; Patient A, adult UCD, 9 mL/day for at least 7 days, 52 μmol/L before treatment): 33 µmol/L
average daily ammonia [7, 13]: 66 µmol/L
maximum ammonia after dinner [7, 13]: 95 µmol/L
fasting ammonia level ([7]; Patient A, 12 mL total or 4 mL TID for at least 7 days): 15 µmol/L
fasting blood ammonia level ([7]; Patient B, 3.5 mL 3 times a day for at least 7 days): 17 µmol/L

alternative HPN-100 metabolite level in plasma [8]: below the limit of quantification
Compound: O=C(O)CNC(=O)CCCc1ccccc1 [PBG, phenylbutyryl glycine]

fractional presystemic metabolism of PBA ([5]; adults): 23%
fractional presystemic metabolism of PBA ([5]; pediatric patients): 43%
Compound: sodium phenylbutyrate [NaPBA, reference compound]
relationship between neurological AEs and PAA levels [4]: No statistically significant relationship
fasting blood ammonia level ([7]; Patient B, 11-year UCD patient, 24 pills per day, suspected noncompliant): 40 µmol/L

The remaining lines, values behind:

Compound: O=C(O)CNC(=O)Cc1ccccc1 [PAG, phenylacetyl glycine]
alternative HPN-100 metabolite level in plasma [8]: below the limit of quantification

Compound: NC(=O)CC[C@H](NC(=O)CCCc1ccccc1)C(=O)O [PBGN, phenylbutyryl glutamine]
alternative HPN-100 metabolite level in plasma [8]: below the limit of quantification

Compound: O=C([O-])c1ccccc1.[Na+] [sodium benzoate, reference compound]
fasting blood ammonia level ([7]; Patient C, adult UCD, 15 g/day for at least 7 days, 77 μmol/L before treatment): 35 µmol/L
fasting ammonia level ([7]; Patient C, 18 grams per day for at least 7 days): 15 µmol/L
